pIC50: −log10 of the molar value. Where a name gives a salt, the structure may show the parent alone.
Target: human VR1 (Homo sapiens, UniProt Q8NER1)
Experiment: Human VR1 antagonist assay (Ca2+ imaging)
Type: cell-based
Details: Ca2+ imaging assay using human VR1 highly expressing cells, fura-2/AM; agonist stimulation (capsaicin 300 nM or acid pH 5.8), not given
Source text: Human VR1 Antagonist Assay
VR1 antagonistic activity can be determined by the Ca^2+ imaging assay using human VR1 highly expressing cells. The cells that highly express human VR1 receptors are obtainable from several different conventional methods. The one standard method is cloning from human Dorsal Root Ganglion (DRG) or kidney according to the methods such as described in the journal article; Nature, 389, pp 816-824, 1997. Alternatively VR1 receptors highly expressing human keratinocytes are also known and published in the journal article (Biochemical and Biophysical Research Communications, 291, pp 124-129, 2002). […] Furthermore, the method to up regulate human VR1 gene, which is usually a silent gene or don't produce detectable level of VR1 receptors, is also available to obtain propriety cells. Such genetic modification method was described in detail; Nat. Biotechnol., 19, pp 440-445, 2001.
The cells that express human VR1 receptors were maintained in culture flask at 37° C. in an environment containing 5% CO2 until use in the assay. The intracellular Ca^2+ imaging assay to determine VR1 antagonistic activities were done by following procedures.
The culture medium was removed from the flask and fura-2/AM fluorescent calcium indicator was added to the flask at a concentration of 5 μM in the medium. The flask was placed in CO2 incubator and incubated for 1 hour. Then the cells expressing the human VR1 receptors were detached from the flask follow by washing with phosphate buffer saline, PBS(−) and re-suspended in assay buffer. The 80 μl of aliquot of cell suspension (3.75×10^5 cells/ml) was added to the assay plate and the cells were spun down by centrifuge (950 rpm, 20° C., 3 minutes).
The compounds of the examples were tested in the Human VR1 antagonist assay described above.
The capsaicin-induced changes in the intracellular calcium concentration were monitored using FDSS 6000 (Hamamatsu Photonics, Japan), a fluorometric imaging system. The cell suspension in Krebs-Ringer HEPES (KRH) buffer (115 mM NaCl, 5.4 mM KCl, 1 mM MgSO4, 1.8 mM CaCl2, 11 mM D-Glucose, 25 mM HEPES, 0.96 mM Na2HPO4, pH 7.3) were pre-incubated with varying concentrations of the test compounds or KRH buffer (buffer control) for 15 minutes at room temperature under the dark condition. Then capsaicin solution, which gives 300 nM in assay mixture, was automatically added to the assay plate by the FDSS 6000.
The Acid-induced changes in the intracellular calcium concentration were monitored using FDSS 6000 (Hamamatsu Photonics, Japan), a fluorometric imaging system. The cell suspension in resting buffer (HBSS supplemented with 10 mM HEPES, pH 7.4) were pre-incubated with varying concentrations of the test compounds or resting buffer (buffer control) for 15 minutes at room temperature under the dark condition. The cells were automatically added the stimulating solution (HBSS supplemented with MES, final assay buffer pH5.8) by the FDSS 6000.
The monitoring of the changes in the fluorescence signals (λex=340 nm/380 nm, λem=510-520 nm) was initiated at 1 minute prior to the addition of capsaicin solution or acidic buffer and continued for 5 minute.

Chain of human VR1 (Q8NER1 whole entry): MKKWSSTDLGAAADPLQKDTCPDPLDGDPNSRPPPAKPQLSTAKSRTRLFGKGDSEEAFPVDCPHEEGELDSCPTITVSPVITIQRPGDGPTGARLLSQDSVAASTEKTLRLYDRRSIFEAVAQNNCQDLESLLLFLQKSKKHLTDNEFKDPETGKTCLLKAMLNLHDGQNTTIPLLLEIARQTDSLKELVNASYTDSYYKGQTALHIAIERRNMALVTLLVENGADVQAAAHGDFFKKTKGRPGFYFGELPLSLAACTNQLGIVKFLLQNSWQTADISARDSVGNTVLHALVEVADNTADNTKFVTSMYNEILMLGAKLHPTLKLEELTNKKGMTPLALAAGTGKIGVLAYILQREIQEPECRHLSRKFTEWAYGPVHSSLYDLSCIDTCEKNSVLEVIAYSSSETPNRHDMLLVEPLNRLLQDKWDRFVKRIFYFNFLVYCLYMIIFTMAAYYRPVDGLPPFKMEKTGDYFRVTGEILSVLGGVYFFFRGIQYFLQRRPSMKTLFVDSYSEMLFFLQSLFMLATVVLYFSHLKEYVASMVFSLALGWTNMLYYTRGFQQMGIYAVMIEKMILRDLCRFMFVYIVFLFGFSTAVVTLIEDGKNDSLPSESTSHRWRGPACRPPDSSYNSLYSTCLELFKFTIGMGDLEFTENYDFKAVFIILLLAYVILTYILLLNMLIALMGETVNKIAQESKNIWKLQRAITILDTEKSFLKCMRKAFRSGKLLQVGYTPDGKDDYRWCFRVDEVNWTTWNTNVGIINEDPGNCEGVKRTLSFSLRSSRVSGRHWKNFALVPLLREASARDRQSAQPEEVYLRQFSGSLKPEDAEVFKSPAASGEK

Question: How did the pIC50 turn out when `Cc1cc(CNC(=O)c2ccc3nc(C(C)(C)C(F)(F)F)ccc3c2)c2ccccc2n1` [Example C8, N-[(2-methylquinolin-4-yl)methyl]-2-(2,2,2-trifluoro-1,1-dimethylethyl)quinoline-6-carboxamide] was run?
Answer: 6.45

Question: How did the pIC50 turn out when `CC(NC(=O)c1ccc2cc(C(C)(C)C)ccc2n1)c1ccnc2ccccc12` (stereo not drawn) [Example B5, 6-tert-butyl-N-(1-quinolin-4-ylethyl)quinoline-2-carboxamide hydrochloride] was run?
Answer: 6.69

Question: With `CC(NC(=O)c1ccc2nc(C(C)(C)C(F)(F)F)ccc2c1)c1ccc2[nH]c(=O)[nH]c2c1` (stereo not drawn) [Example C9, N-[1-(2-oxo-2,3-dihydro-1H-benzimidazol-5-yl)ethyl]-2-(2,2,2-trifluoro-1,1-dimethylethyl)quinoline-6-carboxamide] as the compound, how does the pIC50 read?
Answer: 6.82

Question: With `C[C@@H](NC(=O)c1ccc2nc(C(C)(C)C)ccc2c1)c1ccc2[nH]nnc2c1` [Example C1, N-[(1R)-1-(1H-1,2,3-benzotriazol-6-yl)ethyl]-2-tert-butylquinoline-6-carboxamide] as the compound, how does the pIC50 read?
Answer: 7.41

Question: How did the pIC50 turn out when `CC(C)(c1ccc2cc(C(=O)NCc3ccnc4ccccc34)ccc2n1)C(F)(F)F` [Example C5, N-(quinolin-4-ylmethyl)-2-(2,2,2-trifluoro-1,1-dimethylethyl) quinoline-6-carboxamide] was run?
Answer: 7.14

Question: `Cc1ccc2nccc(CNC(=O)c3ccc4nc(C(C)(C)C(F)(F)F)ccc4c3)c2c1` [Example C14, N-[(6-methylquinolin-4-yl)methyl]-2-(2,2,2-trifluoro-1,1-dimethylethyl)quinoline-6-carboxamide] was tested. Which pIC50 did it give?
Answer: 6.37

Question: With `CC(C)(c1ccc2cc(C(=O)NCc3ccnc4ccc(F)cc34)ccc2n1)C(F)(F)F` [Example C11, N-[(6-fluoroquinolin-4-yl)methyl]-2-(2,2,2-trifluoro-1,1-dimethylethyl)quinoline-6-carboxamide] as the compound, how does the pIC50 read?
Answer: 6.76

Question: With `CC(NC(=O)c1ccc2nc(C(C)(C)C(F)(F)F)ccc2c1)c1ccc2[nH]ncc2c1` (stereo not drawn) [Example C4, N-[1-1H-indazole-5-ylethyl]-2-(2,2,2-trifluoro-1,1-dimethylethyl)quinoline-6-carboxamide] as the compound, how does the pIC50 read?
Answer: 7.64

Question: `C[C@@H](NC(=O)c1ccc2cc(C(C)(C)C)ccc2n1)c1ccc2[nH]nnc2c1` [Example B1, N-[(1R)-1-(1H-1,2,3-benzotriazol-6-yl)ethyl]-6-tert-butylquinoline-2-carboxamide] was tested. Which pIC50 did it give?
Answer: 8.02

Question: With `Oc1cc2c(cc1O)CN(C(=S)NCCc1ccc(Cl)cc1)CCC2` [capsazepine, reference compound] as the compound, how does the pIC50 read?
Answer: 6.34 to 6.63

Question: With `CC(C)(c1ccc2cc(C(=O)NCc3cccc4cnccc34)ccc2n1)C(F)(F)F` [Example C7, N-(isoquinolin-5-ylmethyl)-2-(2,2,2-trifluoro-1,1-dimethylethyl) quinoline-6-carboxamide] as the compound, how does the pIC50 read?
Answer: 7.57

Question: With `CC(C)(c1ccc2cc(C(=O)NC(CO)c3ccnc4ccccc34)ccc2n1)C(F)(F)F` (stereo not drawn) [Example C20, N-(2-hydroxy-1-quinolin-4-ylethyl)-2-(2,2,2-trifluoro-1,1-dimethylethyl)quinoline-6-carboxamide] as the compound, how does the pIC50 read?
Answer: 6.24

Question: `CC(NC(=O)c1ccc2nc(C(C)(C)C(F)(F)F)ccc2c1)c1ccc2c(c1)CC(=O)N2` (stereo not drawn) [Example C10, N-[1-(2-oxo-2,3-dihydro-1H-indol-5-yl)ethyl]-2-(2,2,2-trifluoro-1,1-dimethylethyl)quinoline-6-carboxamide] was tested. Which pIC50 did it give?
Answer: 6.56

Question: With `C[C@@H](NC(=O)c1ccc2cc(C(C)(C)C)ccc2c1)c1ccc2nn[nH]c2c1` [Example A1, N-[(1R)-1-(1H-1,2,3-benzotriazol-6-yl)ethyl]-6-tert-butyl-2-naphthamide] as the compound, how does the pIC50 read?
Answer: 7.75

Question: With `C[C@@H](NC(=O)c1ccc2nc(C(C)(C)C)ccc2c1)c1ccc2[nH]c(=O)[nH]c2c1` [Example C2, 2-tert-butyl-N-[(1R)-1-(2-oxo-2,3-dihydro-1H-benzimidazol-6-yl)ethyl]quinoline-6-carboxamide] as the compound, how does the pIC50 read?
Answer: 6.85

Question: How did the pIC50 turn out when `CC1(c2ccc3cc(C(=O)NCc4ccnc5ccccc45)ccc3c2)CC1` [Example A7, 6-(1-methylcyclopropyl)-N-(quinolin-4-ylmethyl)-2-naphthamide] was run?
Answer: 6.85

Question: With `CCC(NC(=O)c1ccc2nc(C(C)(C)C(F)(F)F)ccc2c1)c1ccnc2ccccc12` (stereo not drawn) [Example C18, N-(1-quinolin-4-ylpropyl)-2-(2,2,2-trifluoro-1,1-dimethylethyl) quinoline-6-carboxamide] as the compound, how does the pIC50 read?
Answer: 6.87

Question: With `C[C@@H](NC(=O)c1ccc2nc(C(C)(O)C(F)(F)F)ccc2c1)c1ccnc2ccccc12` (stereo partly drawn) [Example C15, N-[(1R)-1-quinolin-4-ylethyl]-2-(2,2,2-trifluoro-1-hydroxy-1-methylethyl)quinoline-6-carboxamide] as the compound, how does the pIC50 read?
Answer: 6.50

Question: With `CC(C)(C)c1ccc2nc(C(=O)NCc3ccc4[nH]nnc4c3)ccc2c1` [Example B6, N-(1H-1,2,3-benzotriazol-5-ylmethyl)-6-tert-butylquinoline-2-carboxamide] as the compound, how does the pIC50 read?
Answer: 7.73

Question: With `CC(C)(c1ccc2cc(C(=O)NCc3ccnc4c(F)cc(F)cc34)ccc2n1)C(F)(F)F` [Example C12, N-[(6,8-difluoroquinolin-4-yl)methyl]-2-(2,2,2-trifluoro-1,1-dimethylethyl)quinoline-6-carboxamide] as the compound, how does the pIC50 read?
Answer: 6.58

Question: With `CC(NC(=O)c1ccc2cc(C(C)(C)C)ccc2c1)c1ccc2[nH]ncc2c1` (stereo not drawn) [Example A5, 6-tert-butyl-N-[1-1H-indazole-5-ylethyl]-2-naphthamide] as the compound, how does the pIC50 read?
Answer: 7.79

Question: With `CC(C)(C)c1ccc2cc(C(=O)NCc3ccnc4ccccc34)ccc2c1` [Example A2] as the compound, how does the pIC50 read?
Answer: 7.77

Question: `CC(NC(=O)c1ccc2nc(C(C)(C)C)ccc2c1)c1ccc2c(c1)CC(=O)N2` (stereo not drawn) [Example C3, 2-tert-butyl-N-[1-(2-oxo-2,3-dihydro-1H-indol-5-yl)ethyl] quinoline-6-carboxamide] was tested. Which pIC50 did it give?
Answer: 6.62

Question: With `CC(NC(=O)c1ccc2cc(C(C)(C)C)ccc2c1)c1ccc2c(c1)CC(=O)N2` (stereo not drawn) [Example A4, 6-tert-butyl-N-[1-(2-oxo-2,3-dihydro-1H-indol-5-yl)ethyl]-2-naphthamide] as the compound, how does the pIC50 read?
Answer: 7.07

Question: How did the pIC50 turn out when `O=C(NCc1ccnc2ccccc12)c1ccc2cc(C3CC3)ccc2c1` [Example A8, 6-cyclopropyl-N-(quinolin-4-ylmethyl)-2-naphthamide] was run?
Answer: 6.39

Question: `CC(C)(C)c1ccc2nc(C(=O)NCc3ccnc4ccccc34)ccc2c1` [Example B3, 6-tert-butyl-N-(quinolin-4-ylmethyl)quinoline-2-carboxamide] was tested. Which pIC50 did it give?
Answer: 6.93

Question: `C[C@@H](NC(=O)c1ccc2cc(C(C)(C)C)ccc2n1)c1ccnc2ccccc12` (single isomer, unassigned) [Example B7, 6-tert-butyl-N-(1-quinolin-4-ylethyl)quinoline-2-carboxamide] was tested. Which pIC50 did it give?
Answer: 6.88

Question: How did the pIC50 turn out when `CC(C)(C)c1ccc2cc(C(=O)NCc3ccc4c(c3)CN=N4)ccc2c1` [Example A3, 6-tert-butyl-N-(3H-indazol-5-ylmethyl)-2-naphthamide] was run?
Answer: 7.21

Question: `COC(C)(c1ccc2cc(C(=O)NCc3ccnc4ccccc34)ccc2c1)C(F)(F)F` (stereo not drawn) [Example A6, N-(quinolin-4-ylmethyl)-6-(1,1,1-trifluoro-2-methoxypropan-2-yl)-2-naphthamide] was tested. Which pIC50 did it give?
Answer: 7.28

Question: `C[C@@H](NC(=O)c1ccc2nc(C(C)(C)C(F)(F)F)ccc2c1)c1ccnc2ccccc12` (single isomer, unassigned) [Example C13] was tested. Which pIC50 did it give?
Answer: 7.30

Question: `CC(NC(=O)c1cnc2cc(C(C)(C)C)ccc2c1)c1ccnc2ccccc12` (stereo not drawn) [Example D1, 7-tert-butyl-N-(1-quinolin-4-ylethyl)quinoline-3-carboxamide] was tested. Which pIC50 did it give?
Answer: 6.61

Question: With `Cc1cccc2c(CNC(=O)c3ccc4nc(C(C)(C)C(F)(F)F)ccc4c3)ccnc12` [Example C16, N-[(8-methylquinolin-4-yl)methyl]-2-(2,2,2-trifluoro-1,1-dimethylethyl)quinoline-6-carboxamide] as the compound, how does the pIC50 read?
Answer: 6.36

Question: With `CC[C@@H](NC(=O)c1ccc2cc(C(C)(C)C)ccc2n1)c1ccc2[nH]nnc2c1` [Example B2, N-[(1R)-1-(1H-1,2,3-benzotriazol-6-yl)propyl]-6-tert-butylquinoline-2-carboxamide] as the compound, how does the pIC50 read?
Answer: 6.80

Source: patent US8134004B2, “Substituted N-bicyclicalkyl bicycliccarboxyamide compounds” (Pfizer Inc., priority 2006, dated 2012)
